Data published in patent US9624214B2, “Amino-substituted imidazo[1,2-a]pyridinecarboxamides and their use” (BAYER PHARMA AKTIENGESELLSCHAFT, priority 2012, dated 2017).

biological target: T1, recombinant guanylate cyclase reporter cell line (Rattus norvegicus, UniProt P19686+P20595); assay: B-2. Action on recombinant guanylate cyclase reporter cell line; format: cell-based; settings: MEC = minimal effective concentration; in some cases mean values from individual determinations
T1 construct: expressed in transfected cells
T1 sequence (P20595 1-619): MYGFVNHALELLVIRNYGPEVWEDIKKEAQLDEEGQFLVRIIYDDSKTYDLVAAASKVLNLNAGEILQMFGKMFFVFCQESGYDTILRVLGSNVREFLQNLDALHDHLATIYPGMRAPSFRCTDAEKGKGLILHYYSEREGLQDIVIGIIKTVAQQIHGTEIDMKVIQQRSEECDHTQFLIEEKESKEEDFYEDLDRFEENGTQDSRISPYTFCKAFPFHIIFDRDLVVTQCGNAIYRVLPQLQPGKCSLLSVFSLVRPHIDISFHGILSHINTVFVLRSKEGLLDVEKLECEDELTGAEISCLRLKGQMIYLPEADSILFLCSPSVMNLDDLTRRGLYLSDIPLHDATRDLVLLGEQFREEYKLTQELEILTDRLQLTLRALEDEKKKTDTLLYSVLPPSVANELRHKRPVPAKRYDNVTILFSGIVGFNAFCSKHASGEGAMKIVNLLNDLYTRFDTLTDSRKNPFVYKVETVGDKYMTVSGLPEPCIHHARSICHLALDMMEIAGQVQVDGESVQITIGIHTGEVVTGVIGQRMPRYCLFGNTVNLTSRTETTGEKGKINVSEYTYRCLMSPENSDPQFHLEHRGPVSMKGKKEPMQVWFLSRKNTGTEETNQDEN
T1 sequence (P19686 1-690): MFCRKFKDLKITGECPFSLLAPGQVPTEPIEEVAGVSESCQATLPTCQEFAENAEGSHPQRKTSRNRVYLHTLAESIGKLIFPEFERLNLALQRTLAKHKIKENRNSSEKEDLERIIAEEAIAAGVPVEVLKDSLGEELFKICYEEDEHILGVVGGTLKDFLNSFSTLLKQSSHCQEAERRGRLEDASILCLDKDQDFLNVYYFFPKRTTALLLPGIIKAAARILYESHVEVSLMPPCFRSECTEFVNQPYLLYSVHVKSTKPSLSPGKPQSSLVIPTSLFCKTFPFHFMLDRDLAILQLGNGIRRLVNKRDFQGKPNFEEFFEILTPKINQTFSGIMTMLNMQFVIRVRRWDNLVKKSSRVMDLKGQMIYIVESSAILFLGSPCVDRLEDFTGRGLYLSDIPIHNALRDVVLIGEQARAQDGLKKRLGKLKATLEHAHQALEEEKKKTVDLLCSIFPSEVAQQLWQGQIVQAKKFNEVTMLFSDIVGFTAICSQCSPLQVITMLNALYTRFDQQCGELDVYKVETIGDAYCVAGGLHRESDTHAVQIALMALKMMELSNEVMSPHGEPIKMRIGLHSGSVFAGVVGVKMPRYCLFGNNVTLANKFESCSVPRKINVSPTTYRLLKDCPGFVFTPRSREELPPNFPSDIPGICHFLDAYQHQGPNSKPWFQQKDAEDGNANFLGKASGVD
Method in brief: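 Reported value is the minimal effective concentration (MEC), in some cases a mean of single runs, taken from a recombinant rat guanylate cyclase reporter cell line.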

SMILES | MEC [µM]
COCC(C)(N)CNC(=O)c1c(C)nc2c(OCc3c(F)cccc3F)cccn12 (single isomer, unassigned) [Example 214, ent-N-(2-Amino-3-methoxy-2-methylpropyl)-8-[(2,6-difluorobenzyl)oxy]-2-methylimidazo[1,2-a]-pyridine-3-carboxamide] | 0.30
COCC(C)(N)CNC(=O)c1c(C)nc2c(OCc3c(F)cccc3F)cccn12 (single isomer, unassigned) [Example 215, ent-N-(2-Amino-3-methoxy-2-methylpropyl)-8-[(2,6-difluorobenzyl)oxy]-2-methylimidazo[1,2-a]-pyridine-3-carboxamide] | 1.00
Cc1cc(OCc2c(F)cccc2F)c2nc(C)c(C(=O)NCC(N)C(C)C)n2c1 (single isomer, unassigned) [Example 223, ent-N-(2-Amino-3-methylbutyl)-8-[(2,6-difluorobenzyl)oxy]-2,6-dimethylimidazo[1,2-a]pyridine-3-carboxamide] | 0.30
Cc1cc(OCc2c(F)cccc2F)c2nc(C)c(C(=O)NCC(N)C(C)C)n2c1 (single isomer, unassigned) [Example 224, ent-N-(2-Amino-3-methylbutyl)-8-[(2,6-difluorobenzyl)oxy]-2,6-dimethylimidazo[1,2-a]pyridine-3-carboxamide] | 0.30
Cc1nc2c(OCc3c(F)cccc3F)cccn2c1C(=O)NCC(N)C(C)C (single isomer, unassigned) [Example 228, ent-N-(2-Amino-3-methylbutyl)-8-[(2,6-difluorobenzyl)oxy]-2-methylimidazo[1,2-a]pyridine-3-carboxamide] | 1.00
Cc1nc2c(OCc3c(F)cccc3F)cccn2c1C(=O)NCC(N)C(C)C (single isomer, unassigned) [Example 229, ent-N-(2-Amino-3-methylbutyl)-8-[(2,6-difluorobenzyl)oxy]-2-methylimidazo[1,2-a]pyridine-3-carboxamide] | 1.00
Cc1nc2c(OCc3c(F)cccc3F)cccn2c1C(=O)NCC(N)C(F)(F)C(F)F (single isomer, unassigned) [Example 231, ent-N-(2-Amino-3,3,4,4-tetrafluorobutyl)-8-[(2,6-difluorobenzyl)oxy]-2-methylimidazo[1,2-a]-pyridine-3-carboxamide] | 0.30
CCCC(C)(N)CNC(=O)c1c(C)nc2c(OCc3c(F)cccc3F)cc(C)cn12 (single isomer, unassigned) [Example 233, ent-N-(2-Amino-2-methylpentyl)-8-[(2,6-difluorobenzyl)oxy]-2,6-dimethylimidazo[1,2-a]pyridine-3-carboxamide] | 0.10
Cc1cc(OCc2c(F)cccc2F)c2nc(C)c(C(=O)NCC(C)(N)C(F)(F)F)n2c1 (single isomer, unassigned) [Example 240, ent-N-(2-Amino-3,3,3-trifluoro-2-methylpropyl)-8-[(2,6-difluorobenzyl)oxy]-2,6-dimethylimidazo-[1,2-a]pyridine-3-carboxamide] | 0.30
Cc1cc(OCc2c(F)cccc2F)c2nc(C)c(C(=O)NCC(C)(N)C(F)(F)F)n2c1 (single isomer, unassigned) [Example 241, ent-N-(2-Amino-3,3,3-trifluoro-2-methylpropyl)-8-[(2,6-difluorobenzyl)oxy]-2,6-dimethylimidazo-[1,2-a]pyridine-3-carboxamide] | 0.30
COCC(N)CNC(=O)c1c(C)nc2c(OCc3c(F)cccc3F)cc(C)cn12 (single isomer, unassigned) [Example 242, ent-N-(2-Amino-3-methoxypropyl)-8-[(2,6-difluorobenzyl)oxy]-2,6-dimethylimidazo[1,2-a]-pyridine-3-carboxamide] | 0.30
COCC(N)CNC(=O)c1c(C)nc2c(OCc3c(F)cccc3F)cc(C)cn12 (single isomer, unassigned) [Example 243, ent-N-(2-Amino-3-methoxypropyl)-8-[(2,6-difluorobenzyl)oxy]-2,6-dimethylimidazo[1,2-a]-pyridine-3-carboxamide] | 1.00

Results, then the molecule that gave them:

MEC [µM] | SMILES
0.30 | Cc1nc2c(OCc3c(F)cccc3F)cc(Cl)cn2c1C(=O)NCC(N)C(C)C (single isomer, unassigned) [Example 211, ent-N-(2-Amino-3-methylbutyl)-6-chloro-8-[(2,6-difluorobenzyl)oxy]-2-methylimidazo[1,2-a]-pyridine-3-carboxamide]
1.00 | Cc1nc2c(OCc3c(F)cccc3F)cc(Cl)cn2c1C(=O)NCC(N)C(C)C (single isomer, unassigned) [Example 212, ent-N-(2-Amino-3-methylbutyl)-6-chloro-8-[(2,6-difluorobenzyl)oxy]-2-methylimidazo[1,2-a]-pyridine-3-carboxamide]
0.30 | Cc1cc(OCc2c(F)cccc2F)c2nc(C)c(C(=O)NCC(C)(N)CC(C)C)n2c1 (single isomer, unassigned) [Example 219, ent-N-(2-Amino-2,4-dimethylpentyl)-8-[(2,6-difluorobenzyl)oxy]-2,6-dimethylimidazo[1,2-a]-pyridine-3-carboxamide]
0.10 | Cc1cc(OCc2c(F)cccc2F)c2nc(C)c(C(=O)NCC(C)(N)CC(C)C)n2c1 (single isomer, unassigned) [Example 220, ent-N-(2-Amino-2,4-dimethylpentyl)-8-[(2,6-difluorobenzyl)oxy]-2,6-dimethylimidazo[1,2-a]-pyridine-3-carboxamide]
0.10 | Cc1nc2c(OCc3c(F)cccc3F)cc(Cl)cn2c1C(=O)NCC(C)(N)CC(C)C (single isomer, unassigned) [Example 226, ent-N-(2-Amino-2,4-dimethylpentyl)-6-chloro-8-[(2,6-difluorobenzyl)oxy]-2-methylimidazo[1,2-a]pyridine-3-carboxamide]
0.30 | Cc1nc2c(OCc3c(F)cccc3F)cc(Cl)cn2c1C(=O)NCC(C)(N)CC(C)C (single isomer, unassigned) [Example 227, ent-N-(2-Amino-2,4-dimethylpentyl)-6-chloro-8-[(2,6-difluorobenzyl)oxy]-2-methylimidazo[1,2-a]pyridine-3-carboxamide]
0.03 | CCCC(C)(N)CNC(=O)c1c(C)nc2c(OCc3c(F)cccc3F)cc(C)cn12 (single isomer, unassigned) [Example 234, ent-N-(2-Amino-2-methylpentyl)-8-[(2,6-difluorobenzyl)oxy]-2,6-dimethylimidazo[1,2-a]pyridine-3-carboxamide]
0.30 | Cc1nc2c(OCc3c(F)cccc3F)cc(Cl)cn2c1C(=O)NCC(C)(N)C(F)(F)F (single isomer, unassigned) [Example 237, ent-N-(2-Amino-3,3,3-trifluoro-2-methylpropyl)-6-chloro-8-[(2,6-difluorobenzyl)oxy]-2-methylimidazo[1,2-a]pyridine-3-carboxamide]
1.00 | Cc1nc2c(OCc3c(F)cccc3F)cc(Cl)cn2c1C(=O)NCC(C)(N)C(F)(F)F (single isomer, unassigned) [Example 238, ent-N-(2-Amino-3,3,3-trifluoro-2-methylpropyl)-6-chloro-8-[(2,6-difluorobenzyl)oxy]-2-methylimidazo[1,2-a]pyridine-3-carboxamide]
0.10 | CCCC(C)(N)CNC(=O)c1c(C)nc2c(OCc3c(F)cccc3F)cc(Cl)cn12 (single isomer, unassigned) [Example 245, ent-N-(2-Amino-2-methylpentyl)-6-chloro-8-[(2,6-difluorobenzyl)oxy]-2-methylimidazo[1,2-a]-pyridine-3-carboxamide]
0.30 | CCCC(C)(N)CNC(=O)c1c(C)nc2c(OCc3c(F)cccc3F)cc(Cl)cn12 (single isomer, unassigned) [Example 246, ent-N-(2-Amino-2-methylpentyl)-6-chloro-8-[(2,6-difluorobenzyl)oxy]-2-methylimidazo[1,2-a]-pyridine-3-carboxamide]
